The NIST ThermoML archive (doi:10.1021/acs.jced.6b00688)

Assay: xn = mol fraction of the nth substance listed
Settings: 100 kPa, Liquid; for viscosity: Falling or rolling sphere viscometry; for mass density: Vibrating tube method

OCC1CCCCC1 [cyclohexylmethanol] + CC1CCCCC1
Settings	mass density [kg/m3]	viscosity [mPa·s]
293.15 K, x2 = 0.0998	914.04	22.56
293.15 K, x2 = 0.1996	898.07	12.82
293.15 K, x2 = 0.2999	881.82	7.902
293.15 K, x2 = 0.3998	865.56	4.953
293.15 K, x2 = 0.5004	848.97	3.225
293.15 K, x2 = 0.6007	832.61	2.164
293.15 K, x2 = 0.6997	816.64	1.555
293.15 K, x2 = 0.7984	800.82	1.159
293.15 K, x2 = 0.9012	784.55	0.891
298.15 K, x2 = 0.0998	910.42	17.67
298.15 K, x2 = 0.1996	894.34	10.28
298.15 K, x2 = 0.2999	877.99	6.5
298.15 K, x2 = 0.3998	861.58	4.176
298.15 K, x2 = 0.5004	844.91	2.832
298.15 K, x2 = 0.6007	828.51	1.92
298.15 K, x2 = 0.6997	812.48	1.407
298.15 K, x2 = 0.7984	796.58	1.065
298.15 K, x2 = 0.9012	780.24	0.817
303.15 K, x2 = 0.0998	906.77	14.09
303.15 K, x2 = 0.1996	890.57	8.368
303.15 K, x2 = 0.2999	874.13	5.421
303.15 K, x2 = 0.3998	857.62	3.567
303.15 K, x2 = 0.5004	840.88	2.446
303.15 K, x2 = 0.6007	824.38	1.715
303.15 K, x2 = 0.6997	808.29	1.279
303.15 K, x2 = 0.7984	792.32	0.98
303.15 K, x2 = 0.9012	775.91	0.769
308.15 K, x2 = 0.0998	903.08	11.37
308.15 K, x2 = 0.1996	886.77	6.888
308.15 K, x2 = 0.2999	870.24	4.567
308.15 K, x2 = 0.3998	853.63	3.075
308.15 K, x2 = 0.5004	836.92	2.155
308.15 K, x2 = 0.6007	820.24	1.542
308.15 K, x2 = 0.6997	804.07	1.167
308.15 K, x2 = 0.7984	788.03	0.905
308.15 K, x2 = 0.9012	771.56	0.718
313.15 K, x2 = 0.0998	899.36	9.257
313.15 K, x2 = 0.1996	882.93	5.729
313.15 K, x2 = 0.2999	866.31	3.884
313.15 K, x2 = 0.3998	849.61	2.672
313.15 K, x2 = 0.5004	832.82	1.912
313.15 K, x2 = 0.6007	816.06	1.393
313.15 K, x2 = 0.6997	799.82	1.069
313.15 K, x2 = 0.7984	783.71	0.839
313.15 K, x2 = 0.9012	767.17	0.672
318.15 K, x2 = 0.0998	895.6	7.638
318.15 K, x2 = 0.1996	879.05	4.813
318.15 K, x2 = 0.2999	862.35	3.332
318.15 K, x2 = 0.3998	845.56	2.34
318.15 K, x2 = 0.5004	828.69	1.706
318.15 K, x2 = 0.6007	811.86	1.264
318.15 K, x2 = 0.6997	795.54	0.983
318.15 K, x2 = 0.7984	779.36	0.779
318.15 K, x2 = 0.9012	762.76	0.631
323.15 K, x2 = 0.0998	891.81	6.35
323.15 K, x2 = 0.1996	875.15	4.082
323.15 K, x2 = 0.2999	858.35	2.882
323.15 K, x2 = 0.3998	841.47	2.064
323.15 K, x2 = 0.5004	824.52	1.539
323.15 K, x2 = 0.6007	807.62	1.152
323.15 K, x2 = 0.6997	791.23	0.907
323.15 K, x2 = 0.7984	774.99	0.726
323.15 K, x2 = 0.9012	758.33	0.594
328.15 K, x2 = 0.0998	887.97	5.322
328.15 K, x2 = 0.1996	871.24	3.491
328.15 K, x2 = 0.2999	854.31	2.512
328.15 K, x2 = 0.3998	837.35	1.831
328.15 K, x2 = 0.5004	820.32	1.379
328.15 K, x2 = 0.6007	803.35	1.054
328.15 K, x2 = 0.6997	786.89	0.839
328.15 K, x2 = 0.7984	770.58	0.679
328.15 K, x2 = 0.9012	753.86	0.561
333.15 K, x2 = 0.0998	884.09	4.526
333.15 K, x2 = 0.1996	867.26	3.011
333.15 K, x2 = 0.2999	850.23	2.204
333.15 K, x2 = 0.3998	833.14	1.634
333.15 K, x2 = 0.5004	816.09	1.25
333.15 K, x2 = 0.6007	799.05	0.967
333.15 K, x2 = 0.6997	782.43	0.778
333.15 K, x2 = 0.7984	766.13	0.637
333.15 K, x2 = 0.9012	749.37	0.531

OCC1CCCCC1 [cyclohexylmethanol] + CCCCCCCCCCCC
Settings	mass density [kg/m3]	viscosity [mPa·s]
293.15 K, x2 = 0.1014	898.17	18.36
293.15 K, x2 = 0.1991	872.04	9.786
293.15 K, x2 = 0.299	849.06	6.177
293.15 K, x2 = 0.3997	828.81	4.307
293.15 K, x2 = 0.4992	811.3	3.223
293.15 K, x2 = 0.6005	795.57	2.542
293.15 K, x2 = 0.7008	781.83	2.087
293.15 K, x2 = 0.7986	769.9	1.809
293.15 K, x2 = 0.8996	758.73	1.594
298.15 K, x2 = 0.1014	894.59	14.59
298.15 K, x2 = 0.1991	868.46	7.99
298.15 K, x2 = 0.299	845.44	5.179
298.15 K, x2 = 0.3997	825.18	3.688
298.15 K, x2 = 0.4992	807.71	2.813
298.15 K, x2 = 0.6005	791.92	2.251
298.15 K, x2 = 0.7008	778.16	1.873
298.15 K, x2 = 0.7986	766.22	1.633
298.15 K, x2 = 0.8996	755.05	1.447
303.15 K, x2 = 0.1014	890.99	11.73
303.15 K, x2 = 0.1991	864.86	6.621
303.15 K, x2 = 0.299	841.79	4.403
303.15 K, x2 = 0.3997	821.5	3.197
303.15 K, x2 = 0.4992	804.02	2.479
303.15 K, x2 = 0.6005	788.23	2.01
303.15 K, x2 = 0.7008	774.47	1.69
303.15 K, x2 = 0.7986	762.53	1.481
303.15 K, x2 = 0.8996	751.37	1.321
308.15 K, x2 = 0.1014	887.35	9.573
308.15 K, x2 = 0.1991	861.23	5.545
308.15 K, x2 = 0.299	838.08	3.779
308.15 K, x2 = 0.3997	817.79	2.795
308.15 K, x2 = 0.4992	800.32	2.201
308.15 K, x2 = 0.6005	784.52	1.806
308.15 K, x2 = 0.7008	770.76	1.532
308.15 K, x2 = 0.7986	758.82	1.351
308.15 K, x2 = 0.8996	747.67	1.211
313.15 K, x2 = 0.1014	883.69	7.9
313.15 K, x2 = 0.1991	857.57	4.691
313.15 K, x2 = 0.299	834.37	3.271
313.15 K, x2 = 0.3997	814.07	2.461
313.15 K, x2 = 0.4992	796.59	1.966
313.15 K, x2 = 0.6005	780.79	1.631
313.15 K, x2 = 0.7008	767.03	1.395
313.15 K, x2 = 0.7986	755.09	1.237
313.15 K, x2 = 0.8996	743.96	1.115
318.15 K, x2 = 0.1014	879.99	6.588
318.15 K, x2 = 0.1991	853.91	4.005
318.15 K, x2 = 0.299	830.77	2.854
318.15 K, x2 = 0.3997	810.31	2.183
318.15 K, x2 = 0.4992	792.83	1.767
318.15 K, x2 = 0.6005	777.04	1.48
318.15 K, x2 = 0.7008	763.28	1.276
318.15 K, x2 = 0.7986	751.35	1.138
318.15 K, x2 = 0.8996	740.24	1.031
323.15 K, x2 = 0.1014	876.25	5.525
323.15 K, x2 = 0.1991	850.16	3.447
323.15 K, x2 = 0.299	827.01	2.507
323.15 K, x2 = 0.3997	806.53	1.947
323.15 K, x2 = 0.4992	789.05	1.594
323.15 K, x2 = 0.6005	773.26	1.348
323.15 K, x2 = 0.7008	759.51	1.171
323.15 K, x2 = 0.7986	747.58	1.05
323.15 K, x2 = 0.8996	736.5	0.957
328.15 K, x2 = 0.1014	872.47	4.696
328.15 K, x2 = 0.1991	846.36	2.99
328.15 K, x2 = 0.299	823.2	2.216
328.15 K, x2 = 0.3997	802.71	1.746
328.15 K, x2 = 0.4992	785.24	1.446
328.15 K, x2 = 0.6005	769.45	1.233
328.15 K, x2 = 0.7008	755.71	1.079
328.15 K, x2 = 0.7986	743.79	0.973
328.15 K, x2 = 0.8996	732.74	0.891
333.15 K, x2 = 0.1014	868.64	3.987
333.15 K, x2 = 0.1991	842.52	2.614
333.15 K, x2 = 0.299	819.35	1.972
333.15 K, x2 = 0.3997	798.87	1.574
333.15 K, x2 = 0.4992	781.41	1.318
333.15 K, x2 = 0.6005	765.62	1.132
333.15 K, x2 = 0.7008	751.89	0.997
333.15 K, x2 = 0.7986	739.98	0.904
333.15 K, x2 = 0.8996	728.97	0.832
